Source: PubChem BioAssay (NCI)
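96-well plates; 48 h exposure; 5 concentrations. Endpoints by linear interpolation between flanking doses. Not reached: highest tested concentration assigned. GI50 is the concentration that inhibits growth by half. TGI: concentration producing complete growth inhibition.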

Legend:
Experiment in all cases: inhibition of tumour cell growth, NCI panel, 48 h
OVCAR-3 ovarian = tested on: OVCAR-3 ovarian
HOP-92 NSCLC = tested on: HOP-92 NSCLC
SF-295 CNS = tested on: SF-295 CNS
SK-MEL-28 melanoma = tested on: SK-MEL-28 melanoma
HCC-2998 colon = tested on: HCC-2998 colon
OVCAR-5 ovarian = tested on: OVCAR-5 ovarian
SF-268 CNS = tested on: SF-268 CNS
MOLT-4 leukemia = tested on: MOLT-4 leukemia
COLO 205 colon = tested on: COLO 205 colon
SNB-75 CNS = tested on: SNB-75 CNS
U251 CNS = tested on: U251 CNS
RPMI-8226 leukemia = tested on: RPMI-8226 leukemia

O=C(c1ccc2ccccc2c1)N(Cc1cccnc1)C(=S)N(Cc1cccnc1)C(=O)c1ccc2ccccc2c1
TGI (OVCAR-3 ovarian): 42.7 µM
TGI (HOP-92 NSCLC): 69.7 µM
TGI (SF-295 CNS): > 100 µM
TGI (SK-MEL-28 melanoma): > 100 µM
TGI (HCC-2998 colon): 32 µM
TGI (OVCAR-5 ovarian): > 100 µM
TGI (SF-268 CNS): 78.5 µM
TGI (MOLT-4 leukemia): > 100 µM
TGI (COLO 205 colon): 75.1 µM
TGI (SNB-75 CNS): 53.5 µM
TGI (U251 CNS): 38.6 µM
TGI (RPMI-8226 leukemia): > 100 µM

C=C1CC[C@@H](Br)C(C)(C)[C@]12CCC(C)(O)C(Cl)C2 (stereo partly drawn)
TGI (OVCAR-3 ovarian): 35.8 µM
TGI (HOP-92 NSCLC): 46.3 µM
TGI (SF-295 CNS): 43.1 µM
TGI (SK-MEL-28 melanoma): 40.2 µM
TGI (HCC-2998 colon): 38.2 µM
TGI (OVCAR-5 ovarian): 36.9 µM
TGI (SF-268 CNS): 32.6 µM
TGI (MOLT-4 leukemia): 38.3 µM
TGI (COLO 205 colon): 29.6 µM
TGI (SNB-75 CNS): 78.1 µM
TGI (U251 CNS): 29.7 µM
TGI (RPMI-8226 leukemia): 40.2 µM

CCOC(=O)[C@H]1Nc2c(cccc2[N+](=O)[O-])[C@H]2OCC[C@@H]12
TGI (OVCAR-3 ovarian): > 100 µM
TGI (SF-295 CNS): > 100 µM
TGI (SK-MEL-28 melanoma): > 100 µM
TGI (HCC-2998 colon): > 100 µM
TGI (OVCAR-5 ovarian): > 100 µM
TGI (SF-268 CNS): > 100 µM
TGI (MOLT-4 leukemia): > 100 µM
TGI (COLO 205 colon): > 100 µM
TGI (SNB-75 CNS): > 100 µM
TGI (U251 CNS): > 100 µM
TGI (RPMI-8226 leukemia): > 100 µM

CC[C@H](Nc1nc(N)nc(C)c1C#N)c1nc2cccc(NCc3ccc(C(=O)NO)cc3)c2c(=O)n1-c1ccccc1
GI50 (OVCAR-3 ovarian): 1.2 µM
TGI (OVCAR-3 ovarian): 3.26 µM
GI50 (OVCAR-5 ovarian): 1.49 µM
TGI (OVCAR-5 ovarian): 4.01 µM
GI50 (SF-268 CNS): 1.33 µM
TGI (SF-268 CNS): 3.19 µM
GI50 (MOLT-4 leukemia): 2.34 µM
TGI (MOLT-4 leukemia): > 100 µM
GI50 (COLO 205 colon): 2.05 µM
TGI (COLO 205 colon): 5.31 µM
GI50 (SNB-75 CNS): 0.711 µM
TGI (SNB-75 CNS): 3.97 µM
GI50 (RPMI-8226 leukemia): 2.27 µM
TGI (RPMI-8226 leukemia): 9.78 µM

CC(=O)O[C@H]1CC[C@@]2(C)C(=CC[C@@H]3[C@@H]2CC[C@]2(C)Nc4c(cnn4S(C)(=O)=O)C[C@@H]32)C1
TGI (OVCAR-3 ovarian): > 100 µM
TGI (HOP-92 NSCLC): > 100 µM
TGI (SF-295 CNS): > 100 µM
TGI (SK-MEL-28 melanoma): > 100 µM
TGI (HCC-2998 colon): > 100 µM
TGI (OVCAR-5 ovarian): > 100 µM
TGI (MOLT-4 leukemia): 47.4 µM
TGI (COLO 205 colon): > 100 µM
TGI (SNB-75 CNS): > 100 µM
TGI (U251 CNS): > 100 µM
TGI (RPMI-8226 leukemia): > 100 µM

O=C(O)c1ccc([N+]2=Cn3c(nc4ccccc43)C2)cc1
TGI (OVCAR-3 ovarian): > 100 µM
TGI (SF-295 CNS): > 100 µM
TGI (SK-MEL-28 melanoma): > 100 µM
TGI (HCC-2998 colon): > 100 µM
TGI (OVCAR-5 ovarian): > 100 µM
TGI (SF-268 CNS): > 100 µM
TGI (COLO 205 colon): > 100 µM
TGI (SNB-75 CNS): > 100 µM
TGI (U251 CNS): > 100 µM
TGI (RPMI-8226 leukemia): > 100 µM

O=C1C(c2c(O)[nH]c3ccc(S(=O)(=O)O)cc23)=Nc2ccc(Br)cc21
TGI (OVCAR-3 ovarian): > 100 µM
TGI (HOP-92 NSCLC): > 100 µM
TGI (SF-295 CNS): > 100 µM
TGI (SK-MEL-28 melanoma): > 100 µM
TGI (HCC-2998 colon): > 100 µM
TGI (OVCAR-5 ovarian): > 100 µM
TGI (SF-268 CNS): > 100 µM
TGI (MOLT-4 leukemia): > 100 µM
TGI (COLO 205 colon): > 100 µM
TGI (SNB-75 CNS): > 100 µM
TGI (U251 CNS): > 100 µM
TGI (RPMI-8226 leukemia): > 100 µM

C/C(=N\Oc1cc(Cl)ncn1)c1ccccn1
TGI (OVCAR-3 ovarian): > 100 µM
TGI (HOP-92 NSCLC): 74.3 µM
TGI (SF-295 CNS): > 100 µM
TGI (SK-MEL-28 melanoma): > 100 µM
TGI (HCC-2998 colon): 72.1 µM
TGI (OVCAR-5 ovarian): > 100 µM
TGI (SF-268 CNS): > 100 µM
TGI (MOLT-4 leukemia): > 100 µM
TGI (COLO 205 colon): > 100 µM
TGI (SNB-75 CNS): > 100 µM
TGI (U251 CNS): > 100 µM
TGI (RPMI-8226 leukemia): > 100 µM

CCC1(CCSC(=N)N)C(=O)NC(=O)NC1=O
TGI (OVCAR-3 ovarian): > 100 µM
TGI (HOP-92 NSCLC): > 100 µM
TGI (SF-295 CNS): > 100 µM
TGI (SK-MEL-28 melanoma): > 100 µM
TGI (HCC-2998 colon): > 100 µM
TGI (OVCAR-5 ovarian): > 100 µM
TGI (SF-268 CNS): > 100 µM
TGI (MOLT-4 leukemia): > 100 µM
TGI (COLO 205 colon): > 100 µM
TGI (U251 CNS): > 100 µM
TGI (RPMI-8226 leukemia): > 100 µM

O=C(O)CCSCc1ccc(I)cc1
TGI (OVCAR-3 ovarian): > 100 µM
TGI (HOP-92 NSCLC): > 100 µM
TGI (SF-295 CNS): > 100 µM
TGI (SK-MEL-28 melanoma): > 100 µM
TGI (HCC-2998 colon): > 100 µM
TGI (OVCAR-5 ovarian): > 100 µM
TGI (SF-268 CNS): > 100 µM
TGI (MOLT-4 leukemia): > 100 µM
TGI (COLO 205 colon): > 100 µM
TGI (SNB-75 CNS): > 100 µM
TGI (U251 CNS): > 100 µM
TGI (RPMI-8226 leukemia): > 100 µM

CCCCCCCCCCCCCCCC(=O)OCC1CCCN2CCCCC12 (stereo not drawn)
TGI (OVCAR-3 ovarian): > 100 µM
TGI (HOP-92 NSCLC): > 100 µM
TGI (SF-295 CNS): > 100 µM
TGI (SK-MEL-28 melanoma): > 100 µM
TGI (HCC-2998 colon): > 100 µM
TGI (OVCAR-5 ovarian): > 100 µM
TGI (SF-268 CNS): > 100 µM
TGI (MOLT-4 leukemia): > 100 µM
TGI (COLO 205 colon): > 100 µM
TGI (SNB-75 CNS): > 100 µM
TGI (U251 CNS): > 100 µM
TGI (RPMI-8226 leukemia): > 100 µM

O=C1Nc2ccccc2S/C1=C\c1cccc(C(F)(F)F)c1
TGI (OVCAR-3 ovarian): > 100 µM
TGI (HOP-92 NSCLC): > 100 µM
TGI (SF-295 CNS): > 100 µM
TGI (SK-MEL-28 melanoma): > 100 µM
TGI (OVCAR-5 ovarian): > 100 µM
TGI (SF-268 CNS): > 100 µM
TGI (MOLT-4 leukemia): > 100 µM
TGI (COLO 205 colon): > 100 µM
TGI (SNB-75 CNS): > 100 µM
TGI (U251 CNS): > 100 µM
TGI (RPMI-8226 leukemia): > 100 µM

CCOC(=O)CC1(O)CCCCC1(Sc1ccc(C)cc1)Sc1ccc(C)cc1 (stereo not drawn)
TGI (OVCAR-3 ovarian): > 100 µM
TGI (HOP-92 NSCLC): > 100 µM
TGI (SF-295 CNS): > 100 µM
TGI (SK-MEL-28 melanoma): > 100 µM
TGI (HCC-2998 colon): > 100 µM
TGI (OVCAR-5 ovarian): > 100 µM
TGI (SF-268 CNS): > 100 µM
TGI (MOLT-4 leukemia): > 100 µM
TGI (COLO 205 colon): > 100 µM
TGI (SNB-75 CNS): > 100 µM
TGI (U251 CNS): > 100 µM

O=C(CCl)NC(Cc1ccc(F)cc1)C(=O)O (stereo not drawn)
TGI (OVCAR-3 ovarian): > 100 µM
TGI (HOP-92 NSCLC): > 100 µM
TGI (SF-295 CNS): > 100 µM
TGI (SK-MEL-28 melanoma): > 100 µM
TGI (HCC-2998 colon): > 100 µM
TGI (OVCAR-5 ovarian): > 100 µM
TGI (SF-268 CNS): > 100 µM
TGI (MOLT-4 leukemia): > 100 µM
TGI (COLO 205 colon): > 100 µM
TGI (SNB-75 CNS): > 100 µM
TGI (U251 CNS): > 100 µM
TGI (RPMI-8226 leukemia): > 100 µM
